In patent US20110112133A1, “DIHYDRO PYRROLOQUINOLINE DERIVATIVES” (Takeda Pharmaceutical Company Limited, priority 2009, published 2011):

Target: T1, hNK2 receptor (Homo sapiens, UniProt P21452)
T1 construct: host or cells: CHO cells
T1 sequence (P21452 1-398): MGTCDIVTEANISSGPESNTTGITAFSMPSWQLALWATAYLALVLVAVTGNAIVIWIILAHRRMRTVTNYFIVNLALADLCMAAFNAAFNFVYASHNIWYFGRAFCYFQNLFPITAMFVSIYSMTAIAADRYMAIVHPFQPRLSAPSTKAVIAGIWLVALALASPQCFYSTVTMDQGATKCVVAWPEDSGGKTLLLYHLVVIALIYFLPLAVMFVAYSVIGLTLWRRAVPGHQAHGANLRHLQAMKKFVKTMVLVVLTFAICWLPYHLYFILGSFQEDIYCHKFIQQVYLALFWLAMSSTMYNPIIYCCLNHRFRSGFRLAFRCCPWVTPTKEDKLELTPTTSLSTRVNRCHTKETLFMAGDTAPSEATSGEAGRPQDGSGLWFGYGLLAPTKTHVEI
Assay: Radioligand receptor binding inhibitory activity using membrane fraction of hNK2 receptor-expressing CHO cell ([125I]-NKA)
Conditions: for inhibition at 1 µM / inhibition at 0.1 µM / inhibition at 0.01 µM / inhibition at 10 µM: read-out: hNK2 receptor binding inhibitory activity (inhibitory rate (%)); for inhibition at 10 µM: test compound 10^−5 M
Procedure: Radioligand Receptor Binding Inhibitory Activity Using Membrane Fraction of hNK2 Receptor-Expressing CHO Cell
hNK2 receptor-expressing CHO cells (produced by EUROSCREEN) were cultured in a flask placed HAM-F12 medium containing 400 μg/mL Geneticin, 100 U/mL penicillin, 100 μg/mL streptomycin and 10% inactivated serum. The medium was removed and adhered cells were washed with PBS, and PBS containing 5 mM EDTA was added to detach the cells from the flask. The cells were recovered by centrifugation, suspended in suspending buffer A (15 mM Tris-HCl (pH 7.5), 12.5 mM MgCl2, 0.3 mM EDTA, 1 mM EGTA (Ethylene Glycol Bis(beta-aminoethylether)-N,N,N,N-tetraacetic Acid)), disrupted by POLYTRON homogenizer (manufactured by KINEMATICA) and centrifuged at 850×g for 10 min at 4° C. The supernatant was recovered and ultracentrifuged at 142000×g for 60 min at 4° C. The precipitated fraction was suspended in suspending buffer B (7.5 mM Tris-HCl (pH 7.5), 12.5 mM MgCl2, 0.3 mM EDTA, 1 mM EGTA, 250 mM sucrose), and cryopreserved (at −80° C.) as a membrane fraction preparation of hNK2 receptor-expressing CHO cell.
The radioligand receptor binding assay was performed in a 96 well microassay plate format with a final volume of 200 μL.
An assay buffer (50 μL, 50 mM Tris-HCl (pH 7.4), 0.02% bovine serum albumin, 2 μg/mL chymostatin, 40 μg/mL bacitracin, 40 μg/mL APMSF, 3 mM MnCl2) was added to a 96 well microassay plate. Thereto was added 50 μL of the above-mentioned cryopreserved membrane fraction preparation suspended in the assay buffer (20 μg/mL). An assay buffer (50 μL) containing 2% dimethyl sulfoxide was added to examine the total binding, 4 μM unlabeled NKA (produced by Peptide Institute, Inc.) solution (50 μL) diluted with an assay buffer containing 2% dimethyl sulfoxide was added to examine non-specific binding, and a test compound diluted with an assay buffer (50 μL, containing 2% dimethyl sulfoxide) was added. Furthermore, […] [^125I]-NKA (produced by NEN) solution (50 μL) was added to each well.
After reaction at room temperature for 30 min, using a cell harvester (manufactured by PerkinElmer), the reaction was stopped by rapid filtration on a unifilter plate (GF/C) (manufactured by PerkinElmer), which had been immersed in 0.3% aqueous polyethyleneimine solution for one day, and the cells were washed 10 times with 50 mM Tris-HCl (pH 7.4) buffer (250 μL) containing 0.02% bovine serum albumin. The GF/C filter plate was dried and 20 μL of MicroScinti-0 (manufactured by PerkinElmer) was added to each well and the radioactivity was measured by TopCount (manufactured by PerkinElmer).
Specific binding is shown by the value obtained by subtracting non-specific binding from the total binding. The binding inhibitory activity of the test compound is shown by the ratio of the value obtained by subtracting the measured value associated with the addition of the test compound from the total binding, to the value of the specific binding.

hNK2 receptor binding inhibitory activity (inhibitory rate (%)) (test compound 10^−6 M) [%] | hNK2 receptor binding inhibitory activity (inhibitory rate (%)) (test compound 10^−7 M) [%] | hNK2 receptor binding inhibitory activity (inhibitory rate (%)) (test compound 10^−8 M) [%] | hNK2 receptor binding inhibitory activity (inhibitory rate (%)) (test compound 10^−6 M, hydrochloride) [%] | hNK2 receptor binding inhibitory activity (inhibitory rate (%)) (test compound 10^−8 M, hydrochloride) [%] | inhibition at 1 µM (test compound 10^−6 M) [%] | inhibition at 0.1 µM (test compound 10^−7 M) [%] | inhibition at 0.01 µM (test compound 10^−8 M) [%] | inhibition at 10 µM [%] | Compound
101.1 | 100.5 | 99.7 |  |  |  |  |  |  | Cc1ccn(-c2ccc(C(=O)N[C@@H]3CCC(F)(F)C[C@@H]3C(=O)N3CCc4c(-c5ncc[nH]5)nc5ccccc5c43)cc2)n1 [Example 1, N-[(1R,2S)-4,4-difluoro-2-{[4-(1H-imidazol-2-yl)-2,3-dihydro-1H-pyrrolo[3,2-c]quinolin-1-yl]carbonyl}cyclohexyl]-4-(3-methyl-1H-pyrazol-1-yl)benzamide]
100.7 | 99.7 | 99.6 |  |  |  |  |  |  | Br.Cc1ccn(-c2ccc(C(=O)N[C@@H]3CCC(F)(F)C[C@@H]3C(=O)N3CCc4c(-c5ncc[nH]5)nc5ccccc5c43)cc2)n1 [Example 2, N-[(1R,2S)-4,4-difluoro-2-{[4-(1H-imidazol-2-yl)-2,3-dihydro-1H-pyrrolo[3,2-c]quinolin-1-yl]carbonyl}cyclohexyl]-4-(3-methyl-1H-pyrazol-1-yl)benzamide hydrobromide]
 | 101.4 |  | 101.7 | 100.3 |  |  |  |  | Cc1ccn(-c2ccc(C(=O)N[C@@H]3CCC(F)(F)C[C@@H]3C(=O)N3CCc4c(-c5ncc[nH]5)nc5ccccc5c43)cc2)n1.Cl [Example 3, N-[(1R,2S)-4,4-difluoro-2-{(4-(1H-imidazol-2-yl)-2,3-dihydro-1H-pyrrolo[3,2-c]quinolin-1-yl]carbonyl}cyclohexyl]-4-(3-methyl-1H-pyrazol-1-yl)benzamide hydrochloride]
 |  |  |  |  | 80.1 | 31.6 | -7.5 |  | Cc1ccn(-c2ccc(C(=O)N[C@@H]3CCC(F)(F)C[C@@H]3C(=O)N3CCc4c(-c5nccn5COC(=O)C(C)(C)C)nc5ccccc5c43)cc2)n1 [Example 4, [2-(1-{[(1S,2R)-5,5-difluoro-2-({[4-(3-methyl-1H-pyrazol-1-yl)phenyl]carbonyl}amino)cyclohexyl]carbonyl)-2,3-dihydro-1H-pyrrolo[3,2-c]quinolin-4-yl)-1H-imidazol-1-yl]methyl 2,2-dimethylpropanoate]
100.8 | 99.8 | 96.6 |  |  |  |  |  |  | Cc1ccn(-c2ccc(C(=O)N[C@@H]3CCC(F)(F)C[C@@H]3C(=O)N3CCc4c(-c5ncc[nH]5)nc5ccc(F)cc5c43)cc2)n1 [Example 5, N-[(1R,2S)-4,4-difluoro-2-{[8-fluoro-4-(1H-imidazol-2-yl)-2,3-dihydro-1H-pyrrolo[3,2-c]quinolin-1-yl]carbonyl}cyclohexyl]-4-(3-methyl-1H-pyrazol-1-yl)benzamide]
 |  |  |  |  | 100 | 100 | 98.8 | 102 | Cc1ccn(-c2ccc(C(=O)N[C@@H]3CCC(F)(F)C[C@@H]3C(=O)N3CCc4c(-c5ccsc5)nc5ccccc5c43)cc2)n1 [Example 7, N-[(1R,2S)-4,4-difluoro-2-{(4-thiophen-3-yl-2,3-dihydro-1H-pyrrolo[3,2-c]quinolin-1-yl)carbonyl]cyclohexyl}-4-(3-methyl-1H-pyrazol-1-yl)benzamide]
 |  |  |  |  | 101 | 99.9 | 93.8 | 99.1 | Cc1ccn(-c2ccc(C(=O)N[C@@H]3CCC(F)(F)C[C@@H]3C(=O)N3CCc4c(-c5ccccc5)nc5ccc(F)cc5c43)cc2)n1 [Example 9, N-{(1R,2S)-4,4-difluoro-2-[(8-fluoro-4-phenyl-2,3-dihydro-1H-pyrrolo[3,2-c]quinolin-1-yl)carbonyl]cyclohexyl}-4-(3-methyl-1H-pyrazol-1-yl)benzamide]
